These results are taken from patent US7982042B2, “Thiozanthene derivatives as delta-opioid modulators” (priority 2003, dated 2011).

Read-outs that look alike come from different tables or passages of the source. A value given as a limit tells only on which side of the number the result lay.

Assay [1] addresses T1, Rat brain delta opioid receptor (Rattus norvegicus, UniProt P33533).
T1 construct: from tissue; host or cells: rat brain
The assay can be described thus: Rat brain delta opioid receptor binding.

In assay [2] the target is T2, Rat brain mu opioid receptor (Rattus norvegicus, UniProt P33535).
T2 construct: from tissue; host or cells: forebrain of male Sprague Dawley rats
T2 sequence (P33535 whole entry): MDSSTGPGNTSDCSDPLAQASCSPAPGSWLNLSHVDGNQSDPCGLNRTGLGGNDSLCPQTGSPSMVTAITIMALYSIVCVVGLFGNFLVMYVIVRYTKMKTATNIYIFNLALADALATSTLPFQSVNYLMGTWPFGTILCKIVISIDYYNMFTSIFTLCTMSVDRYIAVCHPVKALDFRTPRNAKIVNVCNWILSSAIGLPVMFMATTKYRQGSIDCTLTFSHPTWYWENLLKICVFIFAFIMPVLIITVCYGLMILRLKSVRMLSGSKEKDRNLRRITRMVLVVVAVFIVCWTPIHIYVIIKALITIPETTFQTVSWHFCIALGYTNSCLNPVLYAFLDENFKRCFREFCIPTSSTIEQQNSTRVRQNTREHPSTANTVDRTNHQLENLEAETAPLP
Nature of the assay: Rat brain mu opioid receptor binding assay ([3H]DAMGO). On the procedure:
• Procedure: Male, Sprague Dawley (150-250 g, VAF, Charles River, Kingston, N.Y.) are killed by CO2, and their brains removed and placed immediately in ice cold Tris HCl buffer (50 mM, pH 7.4). The forebrains are separated from the remainder of the brain by a coronal transection, beginning dorsally at the colliculi and passing ventrally through the midbrain-pontine junction. After dissection, the forebrains are homogenized in Tris buffer in a Teflon®-glass homogenizer. The homogenate is diluted to a concentration of 1 g of forebrain tissue per 80 mL Tris and centrifuged at 39,000×g for 10 min. The pellet is resuspended in the same volume of Tris buffer containing 5 mM MgCl2 with several brief pulses from a Polytron homogenizer. This particulate preparation is used for the mu-opioid binding assays. […] Kd and Ki values are calculated using GraphPad PRISM data analysis program.

Assay [3] deals with T3, human delta opioid receptor (Homo sapiens, UniProt P41143).
T3 construct: purchased Receptor Biology, Inc. (Baltimore, Md.); host or cells: CHO cells expressing the human delta receptor (membranes)
T3 sequence (P41143 whole entry): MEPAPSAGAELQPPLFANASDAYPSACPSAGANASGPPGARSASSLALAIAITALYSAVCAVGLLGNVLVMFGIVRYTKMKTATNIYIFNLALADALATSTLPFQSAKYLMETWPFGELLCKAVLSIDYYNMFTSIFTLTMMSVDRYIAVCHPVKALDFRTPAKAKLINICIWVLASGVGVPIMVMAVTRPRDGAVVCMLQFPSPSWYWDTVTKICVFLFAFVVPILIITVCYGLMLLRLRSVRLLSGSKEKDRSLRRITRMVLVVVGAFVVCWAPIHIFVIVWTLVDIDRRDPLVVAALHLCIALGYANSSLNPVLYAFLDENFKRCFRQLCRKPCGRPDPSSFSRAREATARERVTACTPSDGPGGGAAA
The assay can be described thus: [35S]GTPγS binding assay in CHO-hδ cell membranes. It counts as biochemical. The settings on record: for inhibition at 10 µM: read-out: inhibition of GTP binding induced with 1 uM DPDPE. On the procedure: CHO-hδ cell membranes are purchased from Receptor Biology, Inc. (Baltimore, Md.). 10 mg/ml of membrane protein is suspended in 10 mM TRIS-HC pH 7.2, 2 mM EDTA, 10% sucrose.
Membranes are maintained at 4-8° C. 1 ml of membranes is added into 15 ml cold binding assay buffer. The assay buffer contained 50 mM HEPES, pH 7.6, 5 mM MgCl2, 100 mM NaCl, 1 mM DTT and 1 mM EDTA. The membrane suspension is homogenized with a Polytron 2 times and centrifuged at 3000 rpm for 10 min. The supernatant is then centrifuged at 18,000 rpm for 20 min. The pellet is saved in a tube and 10 ml assay buffer is added into the tube. The pellet and buffer are mixed with a Polytron.
The pellet membranes (20 μg/ml) are preincubated with SPA (10 mg/ml) at 25° C. for 45 min in the assay buffer. The SPA (5 mg/ml) coupled with membranes (10 μg/ml) is then incubated with 0.5 nM [^35S]GTPgS in the same HEPES buffer containing 50 μM GDP in total volume of 200 μl. Increasing concentrations of receptor agonists are used to stimulate [^35S]GTPgS binding. The basal binding is tested in the absence of agonists and non-specific binding is tested in the presence of 10 μM unlabeled GTP S. The data are analyzed on a Top counter.
Background: Binding of GTPγS marks nucleotide exchange on a G protein.

The target in a further assay is T4, human mu opioid receptor (Homo sapiens, UniProt P35372).
T4 construct: purchased Receptor Biology, Inc. (Baltimore, Md.); host or cells: CHO cells expressing the human mu receptor (membranes)
T4 sequence (P35372 whole entry): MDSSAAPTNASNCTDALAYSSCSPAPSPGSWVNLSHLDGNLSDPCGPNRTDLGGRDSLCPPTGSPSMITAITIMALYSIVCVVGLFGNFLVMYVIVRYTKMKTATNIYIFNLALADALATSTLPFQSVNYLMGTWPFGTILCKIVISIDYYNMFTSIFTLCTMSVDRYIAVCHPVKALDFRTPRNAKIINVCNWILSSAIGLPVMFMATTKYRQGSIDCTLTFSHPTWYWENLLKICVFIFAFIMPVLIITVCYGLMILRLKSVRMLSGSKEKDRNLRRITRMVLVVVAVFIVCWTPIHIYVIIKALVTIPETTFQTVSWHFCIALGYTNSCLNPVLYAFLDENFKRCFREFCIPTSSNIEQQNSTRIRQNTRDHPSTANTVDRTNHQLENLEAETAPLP
The assay can be described thus: [35S]GTPγS binding assay in CHO-hμ cell membranes. As to conditions: inhibition relative to 1 uM DAMGO; for inhibition at 10 µM: read-out: hMOR GTPγS % I @10 μM. In kind it is biochemical. The procedure: CHO-hμ cell membranes are purchased from Receptor Biology, Inc. (Baltimore, Md.). About 10 mg/ml of membrane protein is suspended in 10 mM TRIS-HC pH 7.2, 2 mM EDTA, 10% sucrose.
Membranes are maintained at 4-8° C. 1 ml of membranes is added into 15 ml cold binding assay buffer. The assay buffer contains 50 mM HEPES, pH 7.6, 5 mM MgCl2, 100 mM NaCl, 1 mM DTT and 1 mM EDTA. The membrane suspension is homogenized with a Polytron 2 times and centrifuged at 3000 rpm for 10 min. The supernatant is then centrifuged at 18,000 rpm for 20 min. The pellet is saved in a tube and 10 ml assay buffer is added to the tube. The pellet and buffer are mixed with a Polytron.
The pellet membranes (20 μg/ml) are preincubated with SPA (10 mg/ml) at 25 C′ for 45 min in the assay buffer. The SPA (5 mg/ml) coupled with membranes (10 μg/ml) is then incubated with 0.5 nM [^35S]GTPgS in the same HEPES buffer containing 50 μM GDP in total volume of 200 μl. Increasing concentrations of receptor agonists are used to stimulate [^35S]GTPgS binding. The basal binding is tested in the absence of agonists and non-specific binding is tested in the present 10 μM unlabeled GTPγS. The data are analyzed on a Top counter.
% of Basal=(stimulate−non-specific)*100/(basal−non specific). % inhibition value values are calculated using a formula, % Inhibition=(% Basal of 1 uM DAMGO−% Basal of compound)*100/(% Basal of 1 uM DAMGO−100)

Where [4] appears, read: human delta opioid receptor GTPγS functional assay, read-out: hDOR GTPγS EC50.
[5] abbreviates: hDOR GTPγS EC50, human delta opioid receptor GTPγS functional assay.

T1 sequence (P33533 whole entry): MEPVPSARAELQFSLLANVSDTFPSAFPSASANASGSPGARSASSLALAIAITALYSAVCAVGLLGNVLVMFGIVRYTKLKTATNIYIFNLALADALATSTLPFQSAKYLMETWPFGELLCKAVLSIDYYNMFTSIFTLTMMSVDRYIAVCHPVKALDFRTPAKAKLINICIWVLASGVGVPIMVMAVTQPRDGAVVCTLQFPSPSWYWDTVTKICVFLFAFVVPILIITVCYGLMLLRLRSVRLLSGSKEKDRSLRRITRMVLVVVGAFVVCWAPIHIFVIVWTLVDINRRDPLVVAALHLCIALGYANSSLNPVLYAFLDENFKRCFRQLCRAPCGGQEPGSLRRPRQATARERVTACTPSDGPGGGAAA

The Ki is the dissociation constant of the complex between target and ligand, obtained from inhibition or displacement. The EC50 is the concentration that produces a half-maximal response. With `CCN(CC)C(=O)c1ccc2c(c1)Oc1ccccc1C2=C1CCN(CCc2ccccc2)CC1` [Compound 22], the Ki in assay [1] (rDOR Ki) stood at 0.0454 µM; in assay [2] (read-out: rMOR Ki) it was 2.13 µM. Besides, in assay [3] (setting [4]), the EC50 is > 10 µM. Moreover, the inhibition at 10 µM on human mu opioid receptor turned out to be 2%.
In the case of `CCN(CC)C(=O)c1ccc2c(c1)Sc1ccccc1C2=C1CC2CCC(C1)N2Cc1ccc2c(c1)OCO2` [Compound 47, 9-(8-Benzo[1,3]dioxol-5-ylmethyl-8-aza-bicyclo[3.2.1]oct-3-ylidene)-9H-thioxanthene-3-carboxylic acid diethylamide], the Ki in assay [1] (rDOR Ki) is 0.0045 µM; in assay [2] (rMOR Ki), 0.0483 µM. Besides, in assay [3] (setting [4]), the EC50 is 0.125 µM. On human mu opioid receptor, the inhibition at 10 µM came to 59.2%.
As for `CCN(CC)C(=O)c1ccc2c(c1)Oc1ccccc1C2=C1CCN(CCO)CC1` [Compound 35, 9-[1-(2-Hydroxy-ethyl)-piperidin-4-ylidene]-9H-xanthene-3-carboxylic acid diethylamide], the Ki is 0.00701 µM in assay [1] (rDOR Ki) and > 10 µM in assay [2] (read-out: rMOR Ki). Also, in assay [3] (setting [4]), the EC50 was 0.271 µM. Also, on human mu opioid receptor, the inhibition at 10 µM is 17%.
`CCNC(=O)c1ccc2c(c1)OCc1ccccc1C2=C1CC2CCC(C1)N2CCc1ccccc1` [Compound 26, 1-(8-Phenethyl-8-aza-bicyclo[3.2.1]oct-3-ylidene)-6,11-dihydro-dibenzo[b,e]oxepine-3-carboxylic acid ethylamide]: the Ki was 5.48 µM in assay [1] (read-out: rDOR Ki) and 0.0156 µM in assay [2] (read-out: rMOR Ki). The “hMOR GTPγS % I @10 μM” value at human mu opioid receptor is 41.00%.
Regarding `CCN(CC)C(=O)c1ccc2c(c1)Oc1ccccc1C2=C1CCN(C=Nc2ccccc2)CC1` [Compound 36, 9-(1-Phenyliminomethyl-piperidin-4-ylidene)-9H-xanthene-3-carboxylic acid diethylamide], the inhibition constant Ki in assay [1] (rDOR Ki) is 0.00079 µM; in assay [2] (rMOR Ki) it was > 10 µM. In assay [3] (setting [5]), this compound displayed an EC50 of 0.0425 µM. Moreover, the inhibition at 10 µM at human mu opioid receptor came out at 14%.
In the case of `CCN(CC)C(=O)c1ccc2c(c1)Oc1ccccc1C2=C1CCN(C(=N)N)CC1` [Compound 31, 9-(1-Carbamimidoyl-piperidin-4-ylidene)-9H-xanthene-3-carboxylic acid diethylamide], the Ki in assay [1] (rDOR Ki) was 0.0298 µM; in assay [2] (read-out: rMOR Ki), 0.564 µM. Further, the concentration for a half-maximal effect (EC50) in assay [3] (setting [4]) was determined as 0.253 µM. In addition, the inhibition at 10 µM on human mu opioid receptor is 14%.
`CCN(CC)C(=O)c1ccc2c(c1)Oc1ccccc1C2=C1CCN(Cc2ccccc2O)CC1` [Compound 30]: the Ki in assay [1] (rDOR Ki) amounted to 0.0109 µM; in assay [2] (read-out: rMOR Ki) it was 0.912 µM. Further, in assay [3] (setting [4]), the EC50 turned out to be 2.48 µM. Moreover, the inhibition at 10 µM at human mu opioid receptor came to 24%.
Regarding `CCN(CC)C(=O)c1ccc2c(c1)Oc1ccccc1C2=C1CCNCC1` [Compound 3, 9-Piperidin-4-ylidene-9H-xanthene-3-carboxylic acid diethylamide], the results for the Ki in assay [1] (rDOR Ki) and in assay [2] (rMOR Ki) were 0.00095 µM and 6.79 µM, respectively. Also, in assay [3] (setting [5]), a half-maximal response (EC50) required 0.047 µM. For the same compound, the inhibition at 10 µM on human mu opioid receptor was found to be 1%.
In the case of `CCN(CC)C(=O)c1ccc2c(c1)Oc1ccccc1C2=C1CC2CCC(C1)N2C` [Compound 23, 9-(8-Methyl-8-aza-bicyclo[3.2.1]oct-3-ylidene)-9H-xanthene-3-carboxylic acid diethylamide], the Ki in assay [1] (rDOR Ki) is 0.0484 µM; in assay [2] (rMOR Ki) it was 5.56 µM. The EC50 in assay [3] (setting [5]) worked out at 0.245 µM.
For the compound `CCN(CC)C(=O)c1ccc2c(c1)OCc1ccccc1C2=C1CCN(CCc2ccccc2)CC1` [Compound 5, 11-(1-Phenylethylpiperidin-4-ylidene)-6,11-dihydro-dibenzo[b,e]oxepine-3-caroboxylic diethylamide], the Ki in assay [1] (rDOR Ki) worked out at 0.0253 µM; in assay [2] (read-out: rMOR Ki) it was 1.29 µM. The EC50 in assay [3] (setting [4]) is > 10 µM. Besides, the inhibition at 10 µM in assay [3] turned out to be 19%.
In the case of `C=CCN1C2CCC1CC(=C1c3ccccc3Oc3cc(C(=O)N(CC)CC)ccc31)C2` [Compound 38, 9-(8-Allyl-8-aza-bicyclo[3.2.1]oct-3-ylidene)-9H-xanthene-3-carboxylic acid diethylamide], the values for the inhibition constant Ki in assay [1] (rDOR Ki) and in assay [2] (rMOR Ki) were 0.0318 µM and 5.52 µM, respectively. This compound showed an EC50 in assay [3] (setting [5]) of 0.342 µM.
For `CCN(CC)C(=O)c1ccc2c(c1)Oc1ccccc1C2=C1CCN(C)CC1` [Compound 7, 9-(1-Methyl-piperidin-4-ylidene)-9H-xanthene-3-carboxylic acid diethylamide], the figures for the Ki in assay [1] (rDOR Ki) and in assay [2] (rMOR Ki) were 0.0257 µM and 9.19 µM, respectively. At human mu opioid receptor, the inhibition at 10 µM is 1%.
As for `CCN(CC)C(=O)c1ccc2c(c1)Oc1ccccc1C2=C1CC2CCC(C1)N2CCOC` [Compound 39, 9-[8-(2-Methoxy-ethyl)-8-aza-bicyclo[3.2.1]oct-3-ylidene]-9H-xanthene-3-carboxylic acid diethylamide], the results for the inhibitory constant (Ki) in assay [1] (rDOR Ki) and in assay [2] (rMOR Ki) were 0.00843 µM and 1.68 µM, respectively. Besides, the EC50 in assay [3] (setting [5]) was found to be 0.0949 µM.
For `CCN(CC)C(=O)c1ccc2c(c1)Sc1ccccc1C2=C1CC2CCC(C1)N2CCO` [Compound 51, 9-[8-(2Hydroxy-ethyl)-8-aza-bicyclo[3.2.1]oct-3-ylidene]-9H-thioxanthene-3-carboxylic acid diethylamide] the same measures were 0.00485 µM, > 0.1 µM and 0.0628 µM.
For `CCN(CC)C(=O)c1ccc2c(c1)Sc1ccccc1C2=C1CC2CCC(C1)N2CCCSC` [Compound 50] the same measures were 0.0102 µM, > 0.1 µM and 0.236 µM.
In the case of `CCN(CC)C(=O)c1ccc2c(c1)OCc1ccccc1C2=C1CCN(C)CC1` [Compound 1, 11-(1-Methyl-piperidin-4-ylidene)-6,11-dihydro-dibenzo[b,e]oxepine-3-carboxylic acid diethylamide], the inhibition constant Ki in assay [1] (rDOR Ki) came out at 0.0255 µM; in assay [2] (read-out: rMOR Ki) it was 6.41 µM. Further, the EC50 in assay [3] (setting [4]) is > 10 µM. In assay [3], the inhibition at 10 µM stood at 61%.
For the compound `CCN(CC)C(=O)c1ccc2c(c1)Sc1ccccc1C2=C1CC2CCC(C1)N2CC1CC1` [Compound 49], the Ki was 0.025 µM in assay [1] (rDOR Ki) and > 0.1 µM in assay [2] (rMOR Ki). Further, the half-maximal effective concentration (EC50) in assay [3] (setting [5]) amounted to 0.252 µM.
For `CCN(CC)C(=O)c1ccc2c(c1)Sc1ccccc1C2=C1CC2CCC(C1)N2` [Compound 48, 9-(8-Aza-bicyclo[3.2.1]oct-3-ylidene)-9H-thioxanthene-3-carboxylic acid diethylamide] the same measures were 0.0009 µM, > 0.1 µM and 0.0188 µM.
On to `CCN(CC)C(=O)c1ccc2c(c1)Oc1ccccc1C2=C1CC2CCC(C1)N2CCSC` [Compound 40, 9-[8-(Methylsulfanyl-ethyl)-8-aza-bicyclo[3.2.1]oct-3-ylidene]-9H-xanthene-3-carboxylic acid diethylamide], for which the Ki in assay [1] (rDOR Ki) was 0.012 µM; in assay [2] (rMOR Ki) it was > 10 µM. This compound also showed a concentration giving a half-maximal response (EC50) in assay [3] (setting [5]) of 0.267 µM.
